# Data from PMC11089506 (Journal of Medicinal Chemistry, 2024).
# Structures can show the parent of a compound that is named as a salt. Where two headings read alike, the source gives them in different places.
# Key:
# human 5-HT2AR = human 5-HT2AR (Homo sapiens, UniProt P28223); test: Ca2+/Fluo-4 assay, agonist mode, stable 5-HT2AR-HEK293 cells; conditions: for 5-HT2AR pEC50 ± S.E.M. / 5-HT2AR Rmax ± S.E.M.: Table S2; for EC50: at least 3 independent experiments; for 5-HT2AR Rmax (%): % of the 5-HT Rmax; for 5-HT2AR Rmax ± S.E.M.: % of the 5-HT Rmax on the same 96-well plate
# human 5-HT2CR = human 5-HT2CR (Homo sapiens, UniProt P28335); test: Ca2+/Fluo-4 assay, agonist mode, stable 5-HT2CR-HEK293 cells; conditions: for 5-HT2CR pEC50 ± S.E.M.: Table S2; for EC50: at least 3 independent experiments
# [1] = read-out: 5-HT2AR EC50, Table 1
# [2] = read-out: 5-HT2CR EC50, Table 1
# [3] = read-out: 5-HT2AR EC50, Table 2
# [4] = read-out: 5-HT2CR EC50, Table 2
# human 5-HT2CR, sequence (P28335 33-458): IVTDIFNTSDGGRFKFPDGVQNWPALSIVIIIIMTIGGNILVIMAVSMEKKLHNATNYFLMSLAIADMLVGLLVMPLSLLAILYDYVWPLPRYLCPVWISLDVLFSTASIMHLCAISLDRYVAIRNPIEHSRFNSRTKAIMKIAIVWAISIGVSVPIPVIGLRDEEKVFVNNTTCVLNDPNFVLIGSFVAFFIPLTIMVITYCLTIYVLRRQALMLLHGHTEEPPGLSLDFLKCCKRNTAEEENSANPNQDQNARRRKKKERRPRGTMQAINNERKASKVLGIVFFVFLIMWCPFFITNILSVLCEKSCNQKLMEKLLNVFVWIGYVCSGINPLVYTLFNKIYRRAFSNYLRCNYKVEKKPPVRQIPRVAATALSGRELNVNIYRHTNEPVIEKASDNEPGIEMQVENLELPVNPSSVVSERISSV
# human 5-HT2AR, sequence (P28223 whole entry): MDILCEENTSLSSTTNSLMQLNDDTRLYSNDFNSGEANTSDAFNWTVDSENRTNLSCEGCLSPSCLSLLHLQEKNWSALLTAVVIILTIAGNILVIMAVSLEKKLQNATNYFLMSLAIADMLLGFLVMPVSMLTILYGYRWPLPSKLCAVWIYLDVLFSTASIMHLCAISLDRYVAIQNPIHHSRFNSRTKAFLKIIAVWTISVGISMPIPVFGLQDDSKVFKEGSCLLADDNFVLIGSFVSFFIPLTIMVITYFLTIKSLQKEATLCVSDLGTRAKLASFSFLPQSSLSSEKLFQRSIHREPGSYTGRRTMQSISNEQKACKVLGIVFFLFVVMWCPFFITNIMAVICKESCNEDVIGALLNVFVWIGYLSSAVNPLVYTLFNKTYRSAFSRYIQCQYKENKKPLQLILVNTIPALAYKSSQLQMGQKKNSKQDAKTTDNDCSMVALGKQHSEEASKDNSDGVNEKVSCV
Structure (SMILES),5-HT2AR pEC50 ± S.E.M. (human 5-HT2AR),EC50 (human 5-HT2AR; [1]),5-HT2CR pEC50 ± S.E.M. (human 5-HT2CR),EC50 (human 5-HT2CR; [2]),5-HT2AR Rmax ± S.E.M. (human 5-HT2AR),also measured
"COc1cc(C2CCCNC2)c(OC)cc1I (stereo not drawn) [Compound 9dis, 3-(4-Iodo-2,5-dimethoxyphenyl)piperidine]",6.58 ± 0.03,260 nM,5.55 ± 0.08,2800 nM,,
"COc1ccc(OC)c(C2CCCNC2)c1 (stereo not drawn) [Compound 7, 3-(2,5-Dimethoxyphenyl)piperidine]",,,,,,"agonist activity at 5-HT2AR (in words) (human 5-HT2AR): very weak 5-HT2AR agonist activity; EC50 (human 5-HT2AR; 5-HT2AR EC50 (nM), Table 1): > 10000 nM; EC50 (human 5-HT2CR; 5-HT2CR EC50 (nM), Table 1): > 10000 nM"
"COc1cc(C2CCCNC2)ccc1C(F)(F)F.Cl (stereo not drawn) [Compound 23, 3-(3-Methoxy-4-(trifluoromethyl)phenyl)piperidine Hydrochloride]",,,,,,fold drop in agonist potency (fold higher EC50) at 5-HT2AR (human 5-HT2AR; relative to (S)-11): more than 500 fold
"NCCc1c[nH]c2ccc(O)cc12 [Compound 5-HT, 5-hydroxytryptamine, reference compound]",,,,,100%,5-HT2AR Rmax (%) (human 5-HT2AR; Table 1): 100%
"COc1cc(C2CCCNC2)c(OC)cc1SC.Cl (stereo not drawn) [Compound 15eu, 3-(2,5-Dimethoxy-4-(methylthio)phenyl)piperidine Hydrochloride]",7.59 ± 0.11,26 nM,6.29 ± 0.06,510 nM,,
"COc1cc(C(F)(F)F)c(OC)cc1[C@H]1CCCNC1 [(R)-11, 3-(2,5-Dimethoxy-4-(trifluoromethyl)phenyl)piperidine Hydrochloride]",,,6.07 ± 0.06,,,
"CCSc1cc(OC)c(C2CCCNC2)cc1OC.Cl (stereo not drawn) [Compound 16dis, 3-(2,5-Dimethoxy-4-(ethylthio)phenyl)piperidine Hydrochloride]",6.73 ± 0.10,190 nM,6.11 ± 0.08,780 nM,,
"COc1cc(C(F)(F)F)ccc1C1CCCNC1.Cl (stereo not drawn) [Compound 22eu, 3-(2-Methoxy-4-(trifluoromethyl)phenyl)piperidine Hydrochloride]",7.16 ± 0.05,,,,68 ± 2%,"5-HT2AR Rmax (%) (human 5-HT2AR; Table 2): 68%; EC50 (human 5-HT2AR; [3]): 69 nM; EC50 (human 5-HT2CR; 5-HT2CR EC50 (nM), Table 2): > 10000 nM"
"COc1cc(C2CCCNC2)c(OC)cc1SC(C)C (stereo not drawn) [Compound 17dis, 3-(4-(Isopropylthio)-2,5-dimethoxyphenyl)piperidine]",6.54 ± 0.09,290 nM,5.64 ± 0.05,2300 nM,,
"COc1cc(C2CCCNC2)c(OC)cc1SC(C)C (stereo not drawn) [Compound 17eu, 3-(4-(Isopropylthio)-2,5-dimethoxyphenyl)piperidine]",6.81 ± 0.09,160 nM,,,,"EC50 (human 5-HT2CR; 5-HT2CR EC50 (nM), Table 1): > 10000 nM"
"COc1cc(C2CCCNC2)ccc1C(F)(F)F.Cl (stereo not drawn) [Compound 23eu, 3-(3-Methoxy-4-(trifluoromethyl)phenyl)piperidine Hydrochloride]",5.74 ± 0.09,,,,68 ± 7%,"5-HT2AR Rmax (%) (human 5-HT2AR; Table 2): 68%; EC50 (human 5-HT2AR; [3]): 1800 nM; EC50 (human 5-HT2CR; 5-HT2CR EC50 (nM), Table 2): > 10000 nM"
"CCOc1cc(C(F)(F)F)c(OCC)cc1C1CCCNC1.Cl (stereo not drawn) [Compound 26dis, 3-(2,5-Diethoxy-4-(trifluoromethyl)phenyl)piperidine Hydrochloride]",5.52 ± 0.06,,,,69 ± 4%,5-HT2AR Rmax (%) (human 5-HT2AR; Table 2): 69%; EC50 (human 5-HT2AR; [3]): 3000 nM; EC50 (human 5-HT2CR; [4]): > 10000 nM
"COc1cc(C2CCCNC2)c(OC)cc1Cl (stereo not drawn) [Compound 8dis, 3-(4-Chloro-2,5-dimethoxyphenyl)piperidine]",6.16 ± 0.11,690 nM,5.75 ± 0.04,1800 nM,,
"COc1cc(C(F)(F)F)ccc1C1CCCNC1.Cl (stereo not drawn) [Compound 22dis, 3-(2-Methoxy-4-(trifluoromethyl)phenyl)piperidine Hydrochloride]",6.18 ± 0.07,,5.85 ± 0.05,,80 ± 5%,5-HT2AR Rmax (%) (human 5-HT2AR; Table 2): 80%; EC50 (human 5-HT2AR; [3]): 660 nM; EC50 (human 5-HT2CR; [4]): 1400 nM
